The assay deals with Oryctolagus cuniculus. Nature of the assay: In vivo activity using McPhail test after oral dose. It is filed as functional.

The structures appear in SMILES notation.

`C#C[C@]1(O)C=CC2C3CCC4=CC(=O)CCC4C3CCC21CC` (stereo partly drawn): the ED2 was found to be 0.008 mg/kg.

The molecule `C#C[C@]1(O)CCC2C3CCC4=CC(=O)CCC4C3[C@H]3CC(=C)[C@]21C3` (stereo partly drawn) yielded an ED2 of 1 mg/kg. With `C#C[C@]1(O)CCC2C3CCC4=CC(=O)CCC4C3[C@H]3C[C@H](C)[C@]21C3` (stereo partly drawn) the figure was about 0.032 mg/kg; with `C#C[C@]1(O)CCC2C3CCC4=CC(=O)CCC4C3CCC21CC` (stereo partly drawn), 0.04 mg/kg; with `C1=C2CC3(CCC2C2C(C1)C1CCC4(OCCO4)[C@@]14C[C@@H]2C[C@]41CO1)OCCO3` (stereo partly drawn), over 4 mg/kg. The figure for `C#C[C@]1(O)CCC2C3CCC4=CC(=O)CCC4C3C(=C)CC21CC` (stereo partly drawn) is 0.015 mg/kg. With `C#C[C@]1(O)CCC2C3CCC4=CC(=O)CCC4C3[C@H]3C[C@@H](C)[C@]21C3` (stereo partly drawn) the figure was 0.125 mg/kg; with `C#C[C@]1(O)CC[C@H]2[C@@H]3CCC4=CC(=O)CC[C@@H]4[C@H]3CC[C@@]21C` [NORETHINDRONE], about 0.5 mg/kg.

Values taken from ChEMBL document CHEMBL1129226, “Synthesis of conformationally restricted progestational 13-ethylsteroids” (1997).
